Measurements: the NIST ThermoML archive (doi:10.1021/acs.jced.7b00564)
± gives the expanded uncertainty stated by the source.

Assay: xn = mol fraction of the nth substance listed
Details: Gas, isochoric method

F/C=C/C(F)(F)F [trans-1,3,3,3-tetrafluoropropene] + CC(C)C
specific volume (303.15 K, 259.6 kPa, x2 = 0.516): 0.1062 ± 0.0008 m3/kg
specific volume (303.15 K, 267.9 kPa, x2 = 0.29): 0.0895 ± 0.0008 m3/kg
specific volume (303.15 K, 304.9 kPa, x2 = 0.685): 0.1004 ± 0.0008 m3/kg
specific volume (303.15 K, 305.5 kPa, x2 = 0.428): 0.0844 ± 0.0008 m3/kg
specific volume (303.15 K, 321 kPa, x2 = 0.612): 0.089 ± 0.0009 m3/kg
specific volume (303.15 K, 367.4 kPa, x2 = 0.755): 0.0856 ± 0.0008 m3/kg
specific volume (308.15 K, 264.5 kPa, x2 = 0.516): 0.1062 ± 0.0008 m3/kg
specific volume (308.15 K, 273 kPa, x2 = 0.29): 0.0895 ± 0.0008 m3/kg
specific volume (308.15 K, 310.7 kPa, x2 = 0.685): 0.1004 ± 0.0008 m3/kg
specific volume (308.15 K, 311.3 kPa, x2 = 0.428): 0.0844 ± 0.0008 m3/kg
specific volume (308.15 K, 327.2 kPa, x2 = 0.612): 0.089 ± 0.0008 m3/kg
specific volume (308.15 K, 374.9 kPa, x2 = 0.755): 0.0856 ± 0.0008 m3/kg
specific volume (313.15 K, 269.2 kPa, x2 = 0.516): 0.1062 ± 0.0008 m3/kg
specific volume (313.15 K, 277.9 kPa, x2 = 0.29): 0.0896 ± 0.0007 m3/kg
specific volume (313.15 K, 316.5 kPa, x2 = 0.685): 0.1005 ± 0.0007 m3/kg
specific volume (313.15 K, 317.1 kPa, x2 = 0.428): 0.0844 ± 0.0008 m3/kg
specific volume (313.15 K, 333.4 kPa, x2 = 0.612): 0.0891 ± 0.0008 m3/kg
specific volume (313.15 K, 382.2 kPa, x2 = 0.755): 0.0857 ± 0.0008 m3/kg
specific volume (318.15 K, 274 kPa, x2 = 0.516): 0.1063 ± 0.0008 m3/kg
specific volume (318.15 K, 282.8 kPa, x2 = 0.29): 0.0896 ± 0.0007 m3/kg
specific volume (318.15 K, 322.2 kPa, x2 = 0.685): 0.1005 ± 0.0007 m3/kg
specific volume (318.15 K, 322.8 kPa, x2 = 0.428): 0.0845 ± 0.0008 m3/kg
specific volume (318.15 K, 339.5 kPa, x2 = 0.612): 0.0891 ± 0.0008 m3/kg
specific volume (318.15 K, 389.5 kPa, x2 = 0.755): 0.0857 ± 0.0007 m3/kg
specific volume (323.15 K, 278.8 kPa, x2 = 0.516): 0.1063 ± 0.0008 m3/kg
specific volume (323.15 K, 287.8 kPa, x2 = 0.29): 0.0896 ± 0.0007 m3/kg
specific volume (323.15 K, 328 kPa, x2 = 0.685): 0.1005 ± 0.0007 m3/kg
specific volume (323.15 K, 328.5 kPa, x2 = 0.428): 0.0845 ± 0.0008 m3/kg
specific volume (323.15 K, 345.6 kPa, x2 = 0.612): 0.0891 ± 0.0008 m3/kg
specific volume (323.15 K, 396.8 kPa, x2 = 0.755): 0.0857 ± 0.0007 m3/kg
specific volume (328.15 K, 283.5 kPa, x2 = 0.516): 0.1063 ± 0.0007 m3/kg
specific volume (328.15 K, 292.7 kPa, x2 = 0.29): 0.0896 ± 0.0007 m3/kg
specific volume (328.15 K, 333.7 kPa, x2 = 0.685): 0.1005 ± 0.0007 m3/kg
specific volume (328.15 K, 334.2 kPa, x2 = 0.428): 0.0845 ± 0.0007 m3/kg
specific volume (328.15 K, 351.7 kPa, x2 = 0.612): 0.0891 ± 0.0008 m3/kg
specific volume (328.15 K, 404 kPa, x2 = 0.755): 0.0857 ± 0.0007 m3/kg
specific volume (333.15 K, 288.2 kPa, x2 = 0.516): 0.1063 ± 0.0007 m3/kg
specific volume (333.15 K, 297.6 kPa, x2 = 0.29): 0.0896 ± 0.0007 m3/kg
specific volume (333.15 K, 339.5 kPa, x2 = 0.685): 0.1005 ± 0.0007 m3/kg
specific volume (333.15 K, 339.9 kPa, x2 = 0.428): 0.0845 ± 0.0007 m3/kg
specific volume (333.15 K, 357.8 kPa, x2 = 0.612): 0.0891 ± 0.0008 m3/kg
specific volume (333.15 K, 411.2 kPa, x2 = 0.755): 0.0857 ± 0.0007 m3/kg
specific volume (338.15 K, 292.9 kPa, x2 = 0.516): 0.1064 ± 0.0007 m3/kg
specific volume (338.15 K, 302.5 kPa, x2 = 0.29): 0.0897 ± 0.0007 m3/kg
specific volume (338.15 K, 345.1 kPa, x2 = 0.685): 0.1006 ± 0.0007 m3/kg
specific volume (338.15 K, 345.6 kPa, x2 = 0.428): 0.0845 ± 0.0007 m3/kg
specific volume (338.15 K, 363.8 kPa, x2 = 0.612): 0.0892 ± 0.0007 m3/kg
specific volume (338.15 K, 418.3 kPa, x2 = 0.755): 0.0857 ± 0.0007 m3/kg
specific volume (343.15 K, 297.6 kPa, x2 = 0.516): 0.1064 ± 0.0007 m3/kg
specific volume (343.15 K, 307.4 kPa, x2 = 0.29): 0.0897 ± 0.0007 m3/kg
specific volume (343.15 K, 350.8 kPa, x2 = 0.685): 0.1006 ± 0.0007 m3/kg
specific volume (343.15 K, 351.2 kPa, x2 = 0.428): 0.0846 ± 0.0007 m3/kg
specific volume (343.15 K, 369.8 kPa, x2 = 0.612): 0.0892 ± 0.0007 m3/kg
specific volume (343.15 K, 425.4 kPa, x2 = 0.755): 0.0858 ± 0.0007 m3/kg
specific volume (348.15 K, 302.3 kPa, x2 = 0.516): 0.1064 ± 0.0007 m3/kg
specific volume (348.15 K, 312.2 kPa, x2 = 0.29): 0.0897 ± 0.0007 m3/kg
specific volume (348.15 K, 356.5 kPa, x2 = 0.685): 0.1006 ± 0.0007 m3/kg
specific volume (348.15 K, 356.9 kPa, x2 = 0.428): 0.0846 ± 0.0007 m3/kg
specific volume (348.15 K, 375.8 kPa, x2 = 0.612): 0.0892 ± 0.0007 m3/kg
specific volume (348.15 K, 432.4 kPa, x2 = 0.755): 0.0858 ± 0.0007 m3/kg
specific volume (353.15 K, 307 kPa, x2 = 0.516): 0.1064 ± 0.0007 m3/kg
specific volume (353.15 K, 317.1 kPa, x2 = 0.29): 0.0897 ± 0.0007 m3/kg
specific volume (353.15 K, 362.1 kPa, x2 = 0.685): 0.1006 ± 0.0007 m3/kg
specific volume (353.15 K, 362.6 kPa, x2 = 0.428): 0.0846 ± 0.0007 m3/kg
specific volume (353.15 K, 381.8 kPa, x2 = 0.612): 0.0892 ± 0.0007 m3/kg
specific volume (353.15 K, 439.4 kPa, x2 = 0.755): 0.0858 ± 0.0007 m3/kg
specific volume (358.15 K, 311.7 kPa, x2 = 0.516): 0.1064 ± 0.0007 m3/kg
specific volume (358.15 K, 321.9 kPa, x2 = 0.29): 0.0897 ± 0.0006 m3/kg
specific volume (358.15 K, 367.7 kPa, x2 = 0.685): 0.1007 ± 0.0007 m3/kg
specific volume (358.15 K, 368.2 kPa, x2 = 0.428): 0.0846 ± 0.0007 m3/kg
specific volume (358.15 K, 387.8 kPa, x2 = 0.612): 0.0892 ± 0.0007 m3/kg
specific volume (358.15 K, 446.5 kPa, x2 = 0.755): 0.0858 ± 0.0007 m3/kg
specific volume (363.15 K, 316.4 kPa, x2 = 0.516): 0.1065 ± 0.0007 m3/kg
specific volume (363.15 K, 326.8 kPa, x2 = 0.29): 0.0898 ± 0.0006 m3/kg
specific volume (363.15 K, 373.3 kPa, x2 = 0.685): 0.1007 ± 0.0007 m3/kg
specific volume (363.15 K, 373.9 kPa, x2 = 0.428): 0.0846 ± 0.0007 m3/kg
specific volume (363.15 K, 393.7 kPa, x2 = 0.612): 0.0892 ± 0.0007 m3/kg
specific volume (363.15 K, 453.5 kPa, x2 = 0.755): 0.0858 ± 0.0006 m3/kg
specific volume (368.15 K, 321.1 kPa, x2 = 0.516): 0.1065 ± 0.0007 m3/kg
specific volume (368.15 K, 331.6 kPa, x2 = 0.29): 0.0898 ± 0.0006 m3/kg
specific volume (368.15 K, 379 kPa, x2 = 0.685): 0.1007 ± 0.0007 m3/kg
specific volume (368.15 K, 379.5 kPa, x2 = 0.428): 0.0846 ± 0.0007 m3/kg
specific volume (368.15 K, 399.7 kPa, x2 = 0.612): 0.0893 ± 0.0007 m3/kg
specific volume (368.15 K, 460.5 kPa, x2 = 0.755): 0.0859 ± 0.0006 m3/kg
specific volume (373.15 K, 325.7 kPa, x2 = 0.516): 0.1065 ± 0.0007 m3/kg
specific volume (373.15 K, 336.5 kPa, x2 = 0.29): 0.0898 ± 0.0006 m3/kg
specific volume (373.15 K, 384.7 kPa, x2 = 0.685): 0.1007 ± 0.0006 m3/kg
specific volume (373.15 K, 385.1 kPa, x2 = 0.428): 0.0847 ± 0.0006 m3/kg
specific volume (373.15 K, 405.6 kPa, x2 = 0.612): 0.0893 ± 0.0006 m3/kg
specific volume (373.15 K, 467.6 kPa, x2 = 0.755): 0.0859 ± 0.0006 m3/kg
specific volume (378.15 K, 330.4 kPa, x2 = 0.516): 0.1065 ± 0.0006 m3/kg
specific volume (378.15 K, 341.4 kPa, x2 = 0.29): 0.0898 ± 0.0006 m3/kg
specific volume (378.15 K, 390.3 kPa, x2 = 0.685): 0.1007 ± 0.0006 m3/kg
specific volume (378.15 K, 390.7 kPa, x2 = 0.428): 0.0847 ± 0.0006 m3/kg
specific volume (378.15 K, 411.7 kPa, x2 = 0.612): 0.0893 ± 0.0006 m3/kg
specific volume (378.15 K, 474.5 kPa, x2 = 0.755): 0.0859 ± 0.0006 m3/kg
specific volume (383.15 K, 335.1 kPa, x2 = 0.516): 0.1066 ± 0.0006 m3/kg
specific volume (383.15 K, 346.2 kPa, x2 = 0.29): 0.0898 ± 0.0006 m3/kg
specific volume (383.15 K, 395.9 kPa, x2 = 0.685): 0.1008 ± 0.0006 m3/kg
specific volume (383.15 K, 396.3 kPa, x2 = 0.428): 0.0847 ± 0.0006 m3/kg
specific volume (383.15 K, 417.6 kPa, x2 = 0.612): 0.0893 ± 0.0006 m3/kg
specific volume (383.15 K, 481.6 kPa, x2 = 0.755): 0.0859 ± 0.0006 m3/kg
